Patent publication US20190192510A1, “GPR119 AGONIST” (NIPPON CHEMIPHAR CO., LTD., priority 2010, published 2019)
pEC50: −log10 of the molar value. Like-named read-outs stand apart in the source and are kept apart here.

How the values were obtained:
[1] = biological target: T1, human GPR119 (Homo sapiens, UniProt Q8TDV5); experiment: Intracellular cAMP increase in human GPR119 introduced cells (Pharmacological Experiments 1 and 2); assay type: cell-based; conditions: for GPR119 agonist effect: result in words, refers to Tables 12 and 13
T1 sequence (Q8TDV5 1-335): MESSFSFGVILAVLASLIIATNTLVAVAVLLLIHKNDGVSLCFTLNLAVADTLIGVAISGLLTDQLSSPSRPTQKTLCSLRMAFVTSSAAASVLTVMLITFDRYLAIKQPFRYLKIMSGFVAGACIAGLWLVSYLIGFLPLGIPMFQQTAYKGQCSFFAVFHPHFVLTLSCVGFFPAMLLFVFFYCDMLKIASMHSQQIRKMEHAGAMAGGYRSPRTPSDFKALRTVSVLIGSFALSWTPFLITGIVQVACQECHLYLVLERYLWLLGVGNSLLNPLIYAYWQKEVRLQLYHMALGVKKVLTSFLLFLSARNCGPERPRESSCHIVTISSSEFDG
Text: The GPR119 agonist effect is studied by measuring the effect of an analyte on increase of intracellular amount of cAMP in human GPR119 introduced cells. The testing method is described below.
Human GPR119 gene (NM 178471) is purchased from ATCC (ATCC No. 10807349), and is amplyfied according to PCR to form BamHI site at 5′ side and Apa I site at 3′ side. The forward side primer is […] (sequence No. 1), and the reverse side primer is […] (sequence No. 2). The PCR conditions are described below.
(§1) The double-stranded DNA is thermally denatured using a DNA polymerase (KOD-Plus-Ver. 2; TOYOBO #KOD-211) at 98° C. for 10 seconds in one cycle. The denatured single-stranded DNA is annealed with the primers at 55° C. for 30 seconds. The DNA is subjected to an extension reaction at 68° C. for 1 minute and 15 seconds. The above-mentioned steps are repeated in 35 cycles. The PCR product is inserted into pcDNA5/FRT/TO (Invitrogen #V6520-20) plasmid. Flp-in T-Rex-293 cells (Invitorogen #R78007) are transfected with the obtained plasmid. The method of transfection is conducted in accordance with the protocol of the product.
The stable cell line expressing human GPR119 prepared in the above-mentioned method is plated on a 96-well plate at the concentration of 2,500 cells/well using Dulbecco's Modified Eagle Medium (DMEM) containing 10% fetal bovine serum (FBS). Twenty-four hours after plating, tetracyclin (Invitrogen #Q10019) is added at the final concentration of 20 ng/mL to induce hGPR119 gene expression. Twenty-four hours after, the medium is removed, and the cells are stimulated with an assay buffer (0.5 mM IBMX PBS(−)) containing the test compound at 37° C. for 30 minutes. The amount of the intracellular cAMP is measured using a commercially available kit (HitHunter™ cAMP XS+ Assay: GE Healthcare #90007503) and a reader (FLUOstar Optima: BMG LABTECH). The test compound is dissolved in 100% DMSO, and added at the final concentration of 1%.
Human GPR119 gene (NM 178471) was purchased from ATCC (ATCC No. 10807349), and is amplyfied according to PCR to form BamHI site at 5′ side and Apa I site at 3′ side. The primers were […] (sequence No. 1) and […] (sequence No. 2). The PCR conditions are described below.
as §1, with “was” for “is”, “were” for “are”
The stable cell line expressing human GPR119 prepared in the above-mentioned method was plated on a 96-well plate at the concentration of 2,500 cells/well using Dulbecco's Modified Eagle Medium (DMEM) containing 10% fetal bovine serum (FBS). Twenty-four hours after plating, tetracyclin (Invitrogen #Q10019) was added at the final concentration of 20 ng/mL to induce hGPR119 gene expression. Twenty-four hours after, the medium was removed, and the cells were stimulated with an assay buffer (0.5 mM IBMX PBS (−)) containing the test compound at 37° C. for 30 minutes. The amount of the intracellular cAMP was measured using a commercially available kit (HitHunter™ cAMP XS+ Assay: GE Healthcare #90007503) and a reader (FLUOstar Optima: BMG LABTECH). The test compound was dissolved in 100% DMSO, and added at the final concentration of 1%.
The examination was performed by the method similar to Example 61 Pharmacological experiment 1-(1), 1-(2).

[2] = system: normal mice; experiment: Oral glucose tolerance test in normal mice (Pharmacological Experiment 3); assay type: in vivo
Method: Oral glucose tolerance is tested in normal mice.
In this experiment, the inhibitory effect of a test compound on glycemic excursions is examined after glucose administration in normal mice. The test methods are described below.
Male 9-week-old ICR mice, habituated to the experimental environment for two weeks, are fasted for 18 hours and used to this experiment. Mice are orally administered the analyte or vehicle (polyethylene glycol 400:ethanol:Tween 80=8:1:1). After 30 minutes, they were orally given glucose at the dose of 3 g/kg.
Blood is collected at just before the analyte or vehicle administration (−30 minutes), immediately before glucose challenge (0 minute), 20 minutes, 40 minutes, 60 minutes, and 120 minutes after glucose ingestion to determine blood glucose levels.
Inhibition rate (%) of the test compound versus vehicle in areas under the glycemic excursion curve between 0 minute and 120 minutes after glucose challenge is determined. […]
Blood was collected at just before the test compound or vehicle administration (−30 min), immediately before glucose challenge (0 min), 20 min, 40 min, 60 min and 120 min after glucose ingestion and then blood glucose levels were determined.
Inhibition rate (%) of the test compound versus vehicle in areas under the glycemic excursion curve between 0 and 120 min after glucose challenge was determined.

[3] = Table 12, Flp-in T-Rex-293 cells stably expressing hGPR119, intracellular cAMP, 37° C. for 30 minutes, read-out: EC50
[4] = Table 13, Pharmacological experiment 2, method similar to Example 61, read-out: EC50

SMILES | pEC50 [1, 3] | pEC50 [1] | further results
CC(C)(C)OC(=O)N1CCC(c2cnc(Cn3ccc4cc(S(C)(=O)=O)cc(F)c43)cn2)CC1 [Example 28, tert-Butyl 4-[5-(7-fluoro-5-methanesulfonylindol-1-ylmethyl)pyrazin-2-yl]piperidine-1-carboxylate] |  | 8.12 | GPR119 agonist effect [1]: excellent GPR119 agonist effect
CC(C)(C)OC(=O)N1C2CCC1CC(c1cnc(COc3ccc(S(C)(=O)=O)cc3)cn1)C2 (stereo not shown) [Example 11, tert-Butyl 3-[5-(4-methanesulfonylphenoxymethyl)pyrazin-2-yl]-8-azabicyclo[3.2.1]octane-8-carboxylate] |  | 7.17 | 
CC(C)(C)OC(=O)N1CCC(c2cnc(Cn3ccc4cc(S(C)(=O)=O)cnc43)nc2)CC1 [Example 46, tert-Butyl 4-[2-(5-methanesulfonyl-1H-pyrrolo[2,3-b]pyridin-1-ylmethyl)pyrimidin-5-yl]piperidine-1-carboxylate] |  | 7.02 | 
CC(C)(C)OC(=O)N1CCC(c2cnc(COc3ccc(S(C)(=O)=O)cc3)cn2)CC1 [Example 3, tert-Butyl 4-[5-(4-methanesulfonylphenoxymethyl)pyrazin-2-yl]piperidine-1-carboxylate] |  | 7.13 | 
CC(C)(C)OC(=O)N1CC=C(c2cnc(COc3ccc(S(C)(=O)=O)cc3)cn2)CC1 [Example 2, tert-Butyl 4-[5-(4-methanesulfonylphenoxymethyl)pyrazin-2-yl]-3,6-dihydro-2H-pyridine-1-carboxylate] |  | 7.12 | 
CCc1cnc(N2CCC(c3cnc(Cn4ccc5cc(-n6cnnn6)cc(F)c54)cn3)CC2)nc1 [Example 42, 5-Ethyl-2-[4-[5-[7-fluoro-5-(tetrazol-1-yl)indol-1-ylmethyl]pyrazin-2-yl]piperidin-1-yl]pyrimidine] |  |  | pEC50 [1, 4]: 8.51; GPR119 agonist effect [1]: excellent GPR119 agonist effect
CC(C)(C)OC(=O)N1CCC(c2cnc(Cn3ccc4cc(-n5cnnn5)cc(F)c43)nc2)CC1 [Example 49, tert-Butyl 4-[2-[7-fluoro-5-(tetrazol-1-yl)indol-1-ylmethyl]pyrimidin-5-yl]piperidine-1-carboxylate] |  | 7.52 | 
CC1CN(C(=O)OC(C)(C)C)CC=C1c1cnc(Cn2ccc3c(F)c(S(C)(=O)=O)c(F)cc32)cn1 (stereo not shown) [Example 19, tert-Butyl 4-[5-(4,6-difluoro-5-methanesulfonylindol-1-ylmethyl)pyrazin-2-yl]-3-methyl-3,6-dihydro-2H-pyridine-1-carboxylate] |  | 7.08 | 
CS(=O)(=O)c1cc(F)c2c(ccn2Cc2cnc(C3CCN(c4ncc(Br)cn4)CC3)cn2)c1 [Example 51, 5-Bromo-2-[4-[5-(7-fluoro-5-methanesulfonylindol-1-ylmethyl)pyrazin-2-yl]piperidine-1-yl]pyrimidine] |  |  | pEC50 [1, 4]: 8.27; GPR119 agonist effect [1]: excellent GPR119 agonist effect

Second part, led by results:

pEC50 [1, 3] | SMILES | pEC50 [1] | further results
7.86 | CC(C)(C)OC(=O)N1CCC(c2cnc(Cn3ccc4cc(S(C)(=O)=O)ccc43)cn2)CC1 [Example 9, tert-Butyl 4-[5-(5-methanesulfonylindol-1-ylmethyl)pyrazin-2-yl]piperidine-1-carboxylate] |  | GPR119 agonist effect [1]: excellent GPR119 agonist effect; Inhibition rate (%) ([2]; 1 mg/kg oral, male ICR mice, area under glycemic excursion curve 0-120 min after glucose 3 g/kg, versus vehicle): 31.1%; inhibitory effect on glycemic excursions ([2]; result in words, refers to Table 14): excellent inhibitory effect on glycemic excursions
6.89 | CC(C)(C)OC(=O)N1CC=C(c2cnc(COc3ccc(-n4cncn4)cc3)cn2)CC1 [Example 13, tert-Butyl 4-[5-[4-(1,2,4-triazol-1-yl)phenoxymethyl]pyrazin-2-yl]-3,6-dihydro-2H-pyridine-1-carboxylate] |  | melting point: 152 to 154 °C
6.96 | CC(C)(C)OC(=O)N1CC=C(c2cnc(COc3ccc(S(C)(=O)=O)c(F)c3F)cn2)CC1 [Example 18, tert-Butyl 4-[5-(2,3-difluoro-4-methanesulfonylphenoxymethyl)pyrazin-2-yl]-3,6-dihydro-2H-pyridine-1-carboxylate] |  | melting point: 176 to 179 °C
6.50 | CC(C)(C)OC(=O)N1CCC(c2cnc(COc3ccc(S(C)(=O)=O)cc3)nc2)CC1 [Example 1, tert-Butyl 4-[2-(4-methanesulfonylphenoxymethyl)pyrimidin-5-yl]piperidine-1-carboxylate] |  | 
6.90 | CC1CN(C(=O)OC(C)(C)C)CC=C1c1cnc(Cn2ccc3cc(S(C)(=O)=O)cnc32)cn1 (stereo not shown) [Example 15, tert-Butyl 4-[5-(5-methanesulfonyl-1H-pyrrolo[2,3-b]pyridin-1-ylmethyl)pyrazin-2-yl]-3-methyl-3,6-dihydro-2H-pyridine-1-carboxylate] |  | 
